Assay: recombinant UMI read abundance after kanamycin selection (control-corrected) (log10(CPM+1)); higher = more efficient recombination; extreme values may be limits of the assay; sequences stand for … in AGTGCAGAGAAAATCGGCCAGTTTTCTCTGCCTGCAGTCCGCATGCCGTGGGACCCCTTGGGTTCTAACCTGTTGCCTAGATTTATGCAGCGGACTGCCTTTCTCCCAAAGTGATAAACCGG…AGGTTGGTTTCACT; site = the 11-nt donor
Procedure, shortened: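 For the IS621 bridge recombinase, a pooled Escherichia coli screen tested donor and donor-binding-loop pairs. Cells received the pair library together with a target plasmid encoding a fixed target and T7-inducible recombinase, then went onto IPTG (0.07 mM) plus kanamycin or unselected plates in duplicate. After PCR across the donor–target junction and sequencing, recombinant UMI counts were normalized to CPM, averaged, and scaled by control-derived factors. Each value is given as log10(CPM+1).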

Row | Sequence | recombinant UMI read abundance (log10)
1 | GTAGTCGCATGGACCGGTTTTCCCGGTAATCCGTATTTGTG (site GTAGTCGCTCA) | 2.18
2 | GTAGTCGCATGGACCGGTTTTCCCGGTAATCCGTATTTGTG (site GTAGTCGCTCC) | 0.438
3 | GTAGTCGCATGGACCGGTTTTCCCGGTAATCCGTATTTGTG (site GTAGTCGCTCG) | 1.42
4 | GTAGTCGCATGGACCGGTTTTCCCGGTAATCCGTATTTGTG (site GTAGTCGCTCT) | 1.05
5 | GTAGTCTCATGGACCGGTTTTCCCGGTAATCCGTATTTGCG (site GTAGTCACTCG) | 1.31
6 | GTAGTCTCATGGACCGGTTTTCCCGGTAATCCGTATTTGCG (site GTAGTCCCTCG) | 1.12
7 | GTAGTCTCATGGACCGGTTTTCCCGGTAATCCGTATTTGCG (site GTAGTCGCTCG) | 0.176
8 | GTAGTCTCATGGACCGGTTTTCCCGGTAATCCGTATTTGCG (site GTAGTCTCTCG) | 3
9 | GTAGTTGCATGGACCGGTTTTCCCGGTAATCCGTATTTGCG (site GTAGTAGCTCG) | 2.05
10 | GTAGTTGCATGGACCGGTTTTCCCGGTAATCCGTATTTGCG (site GTAGTCGCTCG) | 1.78
11 | GTAGTTGCATGGACCGGTTTTCCCGGTAATCCGTATTTGCG (site GTAGTGGCTCG) | 0.373
12 | GTAGTTGCATGGACCGGTTTTCCCGGTAATCCGTATTTGCG (site GTAGTTGCTCG) | 2.88
13 | GTATACACATGGACCGGTTTTCCCGGTAATCCGTATTTGTA (site GTATACACTTA) | 2.12
14 | GTATACACATGGACCGGTTTTCCCGGTAATCCGTATTTGTA (site GTATCCACTTA) | 0
15 | GTATACACATGGACCGGTTTTCCCGGTAATCCGTATTTGTA (site GTATGCACTTA) | 0.0117
16 | GTATACACATGGACCGGTTTTCCCGGTAATCCGTATTTGTA (site GTATTCACTTA) | 0.0042
17 | GTATAGACATGGACCGGTTTTCCCGGTAATCCGTATTTGCC (site GAATAGACTGG) | 2.37
18 | GTATAGACATGGACCGGTTTTCCCGGTAATCCGTATTTGCC (site GCATAGACTGG) | 2.19
19 | GTATAGACATGGACCGGTTTTCCCGGTAATCCGTATTTGCC (site GGATAGACTGG) | 0.251
20 | GTATAGACATGGACCGGTTTTCCCGGTAATCCGTATTTGCC (site GTATAGACTGG) | 2.83
21 | GTATATCCATGGACCGGTTTTCCCGGTAATCCGTATTTGGT (site GTATATCCTAC) | 1.08
22 | GTATCAACATGGACCGGTTTTCCCGGTAATCCGTATTTGAA (site GTATCAACTTT) | 1.01
23 | GTATCCACATGGACCGGTTTTCCCGGTAATCCGTATTTGTA (site GTATACACTTA) | 0.926
24 | GTATCCACATGGACCGGTTTTCCCGGTAATCCGTATTTGTA (site GTATCCACTTA) | 1.94
25 | GTATCCACATGGACCGGTTTTCCCGGTAATCCGTATTTGTA (site GTATGCACTTA) | 0.019

Row | Sequence | recombinant UMI read abundance (log10)
26 | GTATCCACATGGACCGGTTTTCCCGGTAATCCGTATTTGTA (site GTATTCACTTA) | 0.00595
27 | GTATGAACATGGACCGGTTTTCCCGGTAATCCGTATTTGTA (site GTATGAACTTA) | 2.42
28 | GTATGAACATGGACCGGTTTTCCCGGTAATCCGTATTTGTA (site GTATGCACTTA) | 0.00699
29 | GTATGAACATGGACCGGTTTTCCCGGTAATCCGTATTTGTA (site GTATGGACTTA) | 0.255
30 | GTATGAACATGGACCGGTTTTCCCGGTAATCCGTATTTGTA (site GTATGTACTTA) | 0
31 | GTATGATCATGGACCGGTTTTCCCGGTAATCCGTATTTGGG (site GTATGATCTCC) | 0.738
32 | GTATGCACATGGACCGGTTTTCCCGGTAATCCGTATTTGTG (site GTATGCACTAA) | 0.198
33 | GTATGCACATGGACCGGTTTTCCCGGTAATCCGTATTTGTG (site GTATGCACTCA) | 1.34
34 | GTATGCACATGGACCGGTTTTCCCGGTAATCCGTATTTGTG (site GTATGCACTGA) | 0.881
35 | GTATGCACATGGACCGGTTTTCCCGGTAATCCGTATTTGTG (site GTATGCACTTA) | 1.29
36 | GTATGCCCATGGACCGGTTTTCCCGGTAATCCGTATTTGTA (site GTATGCACTTA) | 0.0189
37 | GTATGCCCATGGACCGGTTTTCCCGGTAATCCGTATTTGTA (site GTATGCCCTTA) | 0.172
38 | GTATGCCCATGGACCGGTTTTCCCGGTAATCCGTATTTGTA (site GTATGCGCTTA) | 0.0563
39 | GTATGCCCATGGACCGGTTTTCCCGGTAATCCGTATTTGTA (site GTATGCTCTTA) | 1.76
40 | GTATGCTCATGGACCGGTTTTCCCGGTAATCCGTATTTGTA (site GTATGCACTTA) | 0.29
41 | GTATGCTCATGGACCGGTTTTCCCGGTAATCCGTATTTGTA (site GTATGCCCTTA) | 1.2
42 | GTATGCTCATGGACCGGTTTTCCCGGTAATCCGTATTTGTA (site GTATGCGCTTA) | 0.0181
43 | GTATGCTCATGGACCGGTTTTCCCGGTAATCCGTATTTGTA (site GTATGCTCTTA) | 2.99
44 | GTATTCGCATGGACCGGTTTTCCCGGTAATCCGTATTTGCG (site GTAATCGCTCG) | 0.015
45 | GTATTCGCATGGACCGGTTTTCCCGGTAATCCGTATTTGCG (site GTACTCGCTCG) | 0.406
46 | GTATTCGCATGGACCGGTTTTCCCGGTAATCCGTATTTGCG (site GTAGTCGCTCG) | 0.00852
47 | GTATTCGCATGGACCGGTTTTCCCGGTAATCCGTATTTGCG (site GTATTCGCTCG) | 0.984
48 | GTCAATCCATGGACCGGTTTTCCCGGTAATCCGTATTTGAA (site GACAATCCTTT) | 0
49 | GTCAATCCATGGACCGGTTTTCCCGGTAATCCGTATTTGAA (site GCCAATCCTTT) | 0.306
50 | GTCAATCCATGGACCGGTTTTCCCGGTAATCCGTATTTGAA (site GGCAATCCTTT) | 0.51

Row | Sequence | recombinant UMI read abundance (log10)
51 | GTCAATCCATGGACCGGTTTTCCCGGTAATCCGTATTTGAA (site GTCAATCCTTT) | 1.07
52 | GTCACCCCATGGACCGGTTTTCCCGGTAATCCGTATTTGGT (site GTCACCCCTAC) | 0.425
53 | GTCACGACATGGACCGGTTTTCCCGGTAATCCGTATTTGAT (site GTCACGACTAT) | 1.77
54 | GTCACGACATGGACCGGTTTTCCCGGTAATCCGTATTTGGC (site GTCACGACTGC) | 1.65
55 | GTCATATCATGGACCGGTTTTCCCGGTAATCCGTATTTGTG (site GTCATATCTCA) | 2.31
56 | GTCCATGCATGGACCGGTTTTCCCGGTAATCCGTATTTGGT (site GTACATGCTAC) | 0.0101
57 | GTCCATGCATGGACCGGTTTTCCCGGTAATCCGTATTTGGT (site GTCCATGCTAC) | 0.891
58 | GTCCATGCATGGACCGGTTTTCCCGGTAATCCGTATTTGGT (site GTGCATGCTAC) | 0.0138
59 | GTCCATGCATGGACCGGTTTTCCCGGTAATCCGTATTTGGT (site GTTCATGCTAC) | 0.00783
60 | GTCCCCACATGGACCGGTTTTCCCGGTAATCCGTATTTGCC (site GTCCCCACTGG) | 2.05
61 | GTCCCGACATGGACCGGTTTTCCCGGTAATCCGTATTTGCA (site GTCCCGACTTG) | 1.54
62 | GTCGAATCATGGACCGGTTTTCCCGGTAATCCGTATTTGTT (site GTCGAATCTAA) | 2.52
63 | GTCGAGGCATGGACCGGTTTTCCCGGTAATCCGTATTTGTG (site GTAGAGGCTCA) | 0.867
64 | GTCGAGGCATGGACCGGTTTTCCCGGTAATCCGTATTTGTG (site GTCGAGGCTCA) | 0.765
65 | GTCGAGGCATGGACCGGTTTTCCCGGTAATCCGTATTTGTG (site GTGGAGGCTCA) | 0.0124
66 | GTCGAGGCATGGACCGGTTTTCCCGGTAATCCGTATTTGTG (site GTTGAGGCTCA) | 0.0142
67 | GTCGCATCATGGACCGGTTTTCCCGGTAATCCGTATTTGGA (site GTCGCATCTTC) | 2.05
68 | GTCGCTCCATGGACCGGTTTTCCCGGTAATCCGTATTTGGG (site GTCGCTCCTCC) | 0.0316
69 | GTCGGTCCATGGACCGGTTTTCCCGGTAATCCGTATTTGAA (site GTCGGTCCTTT) | 0.0112
70 | GTCTGAGCATGGACCGGTTTTCCCGGTAATCCGTATTTGGA (site GTCTGAGCTTC) | 0.754
71 | GTGAAGCCATGGACCGGTTTTCCCGGTAATCCGTATTTGGG (site GAGAAGCCTCC) | 0.0044
72 | GTGAAGCCATGGACCGGTTTTCCCGGTAATCCGTATTTGGG (site GCGAAGCCTCC) | 0.0113
73 | GTGAAGCCATGGACCGGTTTTCCCGGTAATCCGTATTTGGG (site GGGAAGCCTCC) | 0.00817
74 | GTGAAGCCATGGACCGGTTTTCCCGGTAATCCGTATTTGGG (site GTGAAGCCTCC) | 0.00505
75 | GTGAAGGCATGGACCGGTTTTCCCGGTAATCCGTATTTGTG (site GTGAAGGCTCA) | 2.12
